Source: BindingDB's records for doi:10.1111/cbdd.12841 (Zhejiang University of Technology, 2017)

Key:
[1] = target: T1, Amine oxidase [flavin-containing] B (Homo sapiens, UniProt P27338); assay: In vitro MAO-A/B Inhibition Assay
T1 sequence (P27338 whole entry): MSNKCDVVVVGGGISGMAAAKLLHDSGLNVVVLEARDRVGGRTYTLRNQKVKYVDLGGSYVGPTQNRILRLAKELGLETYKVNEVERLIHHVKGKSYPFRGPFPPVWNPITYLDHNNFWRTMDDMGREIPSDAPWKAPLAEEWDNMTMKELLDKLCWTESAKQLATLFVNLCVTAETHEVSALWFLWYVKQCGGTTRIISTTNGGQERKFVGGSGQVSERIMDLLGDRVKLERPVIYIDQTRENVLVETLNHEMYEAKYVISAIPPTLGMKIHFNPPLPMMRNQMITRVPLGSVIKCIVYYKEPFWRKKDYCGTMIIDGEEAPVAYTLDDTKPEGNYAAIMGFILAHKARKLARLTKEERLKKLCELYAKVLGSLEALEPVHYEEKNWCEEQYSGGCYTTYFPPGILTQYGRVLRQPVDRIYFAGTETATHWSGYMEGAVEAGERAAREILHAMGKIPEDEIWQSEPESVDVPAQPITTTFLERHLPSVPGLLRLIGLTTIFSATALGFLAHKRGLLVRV
Method: (§1) The inhibitory activities of flavones were determined in vitro by using fluorescent probe method following the general procedure described in the literature. [Li et al., Nat. Commun., 5:3276]

[2] = target: T2, Amine oxidase [flavin-containing] A (Homo sapiens, UniProt P21397); assay: In vitro MAO-A/B Inhibition Assay
T2 sequence (P21397 whole entry): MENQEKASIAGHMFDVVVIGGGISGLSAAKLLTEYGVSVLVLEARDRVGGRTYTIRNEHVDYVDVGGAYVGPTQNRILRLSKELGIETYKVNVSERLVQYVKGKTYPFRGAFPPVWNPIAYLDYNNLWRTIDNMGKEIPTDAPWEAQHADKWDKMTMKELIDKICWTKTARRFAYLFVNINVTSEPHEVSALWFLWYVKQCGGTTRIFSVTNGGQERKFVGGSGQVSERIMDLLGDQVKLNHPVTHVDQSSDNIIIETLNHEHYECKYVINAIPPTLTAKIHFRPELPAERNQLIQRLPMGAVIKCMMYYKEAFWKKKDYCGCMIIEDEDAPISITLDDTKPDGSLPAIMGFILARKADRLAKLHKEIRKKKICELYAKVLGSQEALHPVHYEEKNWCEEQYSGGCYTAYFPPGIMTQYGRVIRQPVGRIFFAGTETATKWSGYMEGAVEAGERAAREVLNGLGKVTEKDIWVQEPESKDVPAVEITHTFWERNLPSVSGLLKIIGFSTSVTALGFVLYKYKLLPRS
Method: as §1

Row | IC50 [1] [µM] | IC50 [2] [µM] | Compound
1 | 15.6 | 84.6 | O=C(NCc1cn(Cc2ccc3oc(-c4ccccc4)cc(=O)c3c2)nn1)c1ccc(Cl)cc1 [4-chloro-N-((1-((4-oxo-2-phenyl-4H-chromen-6-yl)methyl)-1H-1,2,3-triazol-4-yl)methyl)benzamide (Az1k3)]
2 | 28.5 | 25.3 | Cc1ccc(NC(=O)CCc2cn(Cc3ccc4oc(-c5ccccc5)cc(=O)c4c3)nn2)cc1 [3-(1-((4-oxo-2-phenyl-4H-chromen-6-yl)methyl)-1H-1,2,3-triazol-4-yl)-N-(p-tolyl)propanamide (Az1k5)]
3 | 121 | 678 | O=C(CCc1cn(Cc2ccc3oc(-c4ccc(Cl)cc4)cc(=O)c3c2)nn1)Nc1ccc(F)cc1 [3-(1-((2-(4-chlorophenyl)-4-oxo-4H-chromen-6-yl)methyl)-1H-1,2,3-triazol-4-yl)-N-(4-fluorophenyl)propanamide (Az2k6)]
4 | 97.4 | 152 | Cc1ccc(OCc2cn(Cc3ccc4oc(-c5ccc(Cl)cc5)cc(=O)c4c3)nn2)cc1 [2-(4-chlorophenyl)-6-((4-((p-tolyloxy)methyl)-1H-1,2,3-triazol-1-yl)methyl)-4H-chromen-4-one (Az2k12)]
